Common to all, as to assay: NCI-60 cell line screen, 48 h
Assay [1] concerns OVCAR-4 ovarian.
The subject of assay [2] is UACC-62 melanoma.
The subject of assay [3] is NCI-H23 lung.
Assay [4] relates to A498 renal.
The test system of assay [5] is KM12 colon.
The subject of assay [6] is SK-MEL-28 melanoma.
Assay [7] relates to SNB-19 CNS.
The test system of assay [8] is HCT-116 colon.
The subject of assay [9] is OVCAR-3 ovarian.
Assay [10] concerns OVCAR-8 ovarian.

Among the data in PubChem BioAssay (NCI) are TGI and GI50 values, retold here.

SMILES strings stand for the structures. “And” between values parts separate entries of the source, which are not always exact repeats. Equal values may be shown once.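 Assay format: 96-well plates, 48-hour exposure. The concentration for 50% growth inhibition is given as GI50. The concentration for full growth arrest is given as TGI.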 Where a SMILES comes first, the peptide text is derived from it. The star is where a group is joined. Cbz = O=C(OCc1ccccc1)*; Boc = CC(C)(C)OC(=O)*; OSu = O=C1CCC(=O)N1O*; Bn = c1ccc(C*)cc1 Bounds are passed on as bounds.

`CCOc1ccccc1NC(=O)C1=C(C)NC(C)=C(C(=O)Nc2ccccc2OCC)C1c1ccc([N+](=O)[O-])cc1`: the TGI in assay [1], in assay [2], in assay [3], in [4], in assay [5] and in assay [6] was > 100 µM throughout. Besides, the TGI in assay [7], in [8] and in assay [9] was > 100 µM in each case.
As to `CCOC(=O)c1c(-c2ccccc2)c(C)cn1C`, the TGI in assay [1], in assay [2], in [3], in [5], in assay [7] and in [8] was > 10 µM throughout. For the same molecule, the TGI in assay [9] and in [10] was > 10 µM in each case.
Regarding `Clc1cc2ncn(C3CCCCO3)c2cc1Cl` (stereo not given), the TGI in assay [1], in assay [2], in assay [3], in assay [5], in assay [6] and in assay [7] was > 100 µM each time. Moreover, the TGI in [8], in assay [9] and in [10] was > 100 µM in each case.
Regarding `O=C1/C(=C/c2ccc(Cl)cc2)Oc2ccccc21`, the TGI in assay [1] is > 100 µM; in [2], > 100 µM; in assay [3], 73.1 µM; in [5], > 100 µM; in assay [6], > 100 µM; in [7], > 100 µM. The values for the TGI in [8], in [9] and in [10] were > 100 µM, > 100 µM and 89.5 µM, respectively.
Regarding `CCCCCCCc1ccc(-c2nnc(N=Nc3ccc(OCCCCC)cc3)s2)s1`, the TGI in assay [1], in assay [2], in assay [3], in [4], in assay [5] and in assay [6] was > 100 µM in each case. Also, the TGI in assay [7], in assay [8] and in [9] was > 100 µM throughout.
For the molecule `Clc1ccc(C2=NCON=C2c2ccc(Cl)cc2)cc1`, the TGI in assay [1] is > 100 µM; in assay [2], 37.8 µM; in [3] it was 44.3 µM; in assay [5], 39.6 µM; in assay [7] it was > 100 µM; in assay [8] it was 31.3 µM. The results for the TGI in assay [9] and in assay [10] were 46.6 µM and 88.7 µM, respectively.
On to `Cc1nc(-n2nc(-c3ccccc3)cc2-c2ccccc2)sc1C(=O)/C=C/c1ccccc1`, for which the TGI in assay [2], in assay [3], in assay [4], in assay [5], in assay [6] and in assay [7] was > 100 µM in each case. The TGI in [9] and in [10] was > 100 µM each time.
Consider `CC(C)=CCCC1(C)C2COC(=O)C21` (stereo not given), for which the TGI in [1] is > 100 µM; in assay [2], > 100 µM; in assay [3], > 100 µM and 60.1 µM; in [4] it was > 100 µM; in assay [5], > 100 µM; in assay [6] it was > 100 µM. Besides, the TGI was > 100 µM in assay [7]; > 100 µM and 35.4 µM in [8]. Moreover, the GI50 in [3] is > 100 µM and 26.7 µM; in assay [5] it was > 100 µM and 42.1 µM; in assay [8], > 100 µM and 19.8 µM.
`C/C(CC(=O)Nc1cccc([N+](=O)[O-])c1)=N\NC(=O)C[n+]1ccccc1`: the TGI in [2], in assay [3], in assay [5], in assay [6], in assay [8] and in [9] was > 100 µM throughout. Also, in assay [10], the TGI was > 100 µM.
Turning to `O=C(O)C1(C(O)c2ccccc2)SCCCS1` (stereo not given), the TGI in [2], in assay [3], in [4], in assay [5], in assay [6] and in assay [7] was > 10 µM each time. Besides, the TGI in assay [8], in [9] and in assay [10] was > 10 µM in each case.
For `CC(C)(C)OC(=O)NC(Cc1ccc(OCc2ccccc2)cc1)C(=O)NC(CCCCNC(=O)OCc1ccccc1)C(=O)NC(CCCCNC(=O)OCc1ccccc1)C(=O)ON1C(=O)CCC1=O` (stereo not given) (Boc-Tyr(Bn)-Lys(Cbz)-Lys(Cbz)-OSu; configuration not given here), the TGI is > 100 µM in assay [1]; 34.6 µM in assay [2]; > 100 µM in assay [3]; > 100 µM in [5]; > 100 µM in assay [6]; 30.7 µM in assay [7]. The results for the TGI in assay [8] and in [10] were 58.7 µM and 94.8 µM, respectively.
As to `COc1cc2c(cc1OC)C(=O)/C(=C/c1ccc(N(C)C)cc1)CC2`, the TGI in [1], in [2], in assay [3], in assay [5], in [6] and in assay [7] was > 10 µM each time. In addition, the TGI in [8], in [9] and in [10] was > 10 µM in each case.
As for `CSc1nc[nH]c1C(N)=S`, the TGI in assay [2], in [3], in [4], in assay [5], in assay [6] and in assay [7] was > 100 µM each time. Also, the TGI in [8], in assay [9] and in assay [10] was > 100 µM in each case.
Turning to `COc1cccc(N=NN2CCCC2)c1`, the TGI in [1], in assay [2], in [3], in assay [4], in assay [5] and in [7] was > 100 µM in each case. In addition, the TGI in assay [8], in [9] and in assay [10] was > 100 µM in each case.
Take `O=c1[nH]c2ccc([N+](=O)[O-])cc2nc1/C(=N/Nc1ccccc1)C(O)c1ccco1` (stereo not given): the TGI in assay [1], in assay [2], in [3], in assay [5], in assay [6] and in assay [7] was > 100 µM throughout. Moreover, the TGI in assay [8], in assay [9] and in assay [10] was > 100 µM throughout.
For `O=C(c1ccccc1)c1cc(Cl)ccc1NCn1nnc2ccccc21`, the TGI in assay [1], in assay [2], in [3], in assay [4], in assay [5] and in assay [7] was > 100 µM each time. The TGI in [9] and in assay [10] was > 100 µM throughout.
On to `C[n+]1c2ccccc2c(C(=O)Nc2ccc(S(=O)(=O)Nc3ncccn3)cc2)c2ccccc21`, for which the TGI in [1], in assay [2], in assay [3], in [5], in assay [6] and in [7] was > 100 µM in each case. The TGI in assay [8], in assay [9] and in assay [10] was > 100 µM in each case.
On to `O=CC1=CCC2c3[nH]c4ccccc4c3CCN2C1` (stereo not given), for which the TGI is > 396 µM in assay [2]; 320 µM in assay [3]; 153 µM in assay [5]; 248 µM in assay [6]; > 396 µM in assay [7]; 126 µM in assay [8]. Further, the TGI in assay [9] is 314 µM; in assay [10] it was > 396 µM.
As to `CC(=O)O[C@H]1C(=O)[C@@]2(C)[C@H]([C@H](OC(=O)c3ccco3)[C@]3(O)C[C@H](OC(=O)[C@H](O)[C@@H](NC(=O)c4ccccc4)c4ccccc4)C(C)=C1C3(C)C)[C@]1(OC(C)=O)CO[C@@H]1C[C@@H]2O`, the TGI in assay [1], in assay [2], in assay [3], in [4], in assay [5] and in [6] was > 25 µM in each case. The TGI in assay [7] was > 25 µM; in [9] it was 0.225 µM; in assay [10], > 17.2 µM.
With `CC[C@]1(Cc2ccc(OC)c(OC)c2)C=[N+]([O-])O[C@H](OC2CCCC2(c2ccccc2)c2ccccc2)[C@@H]1OC(=O)C(C)(C)C` (stereo not given in full), the TGI was found to be 14.1 µM in assay [1]; 17.4 µM in assay [2]; 14.8 µM in assay [3]; 5.84 µM in assay [5]; 4.22 µM in assay [6]; 30.3 µM in [7]. In addition, the TGI in [8] was 4.58 µM; in assay [9], 2.92 µM.
`O=c1cccccc1[O-].O=c1cccccc1[O-].O=c1cccccc1[O-].[Sm+3]`: the TGI was > 100 µM in assay [1]; > 100 µM in assay [2]; 71.5 µM in assay [3]; > 100 µM in [4]; > 100 µM in [5]; > 100 µM in [7]. The TGI in assay [8] was 94.5 µM; in assay [9], 47 µM; in [10], > 100 µM. Further, in assay [4], the GI50 is 87.5 µM.
`CC(=O)N1c2cc(N=NN(C)C)ccc2NC(=O)CC1C` (stereo not given): the TGI in assay [1], in assay [2], in [3], in assay [5], in assay [6] and in assay [7] was > 100 µM each time. Also, the TGI in assay [8], in assay [9] and in assay [10] was > 100 µM throughout.
On to `Cc1ccccc1Nc1nc2ccccc2nc1NS(=O)(=O)c1ccccc1`, for which the TGI in [1], in assay [2], in assay [3], in assay [5], in [6] and in [7] was > 100 µM each time. For the same molecule, the TGI in assay [8], in assay [9] and in [10] was > 100 µM throughout.
On to `COc1ccc2c(c1)[n+](=O)c(C(C)=O)c(C)n2[O-]`, for which the TGI in assay [1], in assay [2], in [3], in assay [5], in [6] and in assay [7] was > 100 µM throughout. Also, the TGI in [8], in assay [9] and in assay [10] was > 100 µM each time.
As for `CC(=O)NN(c1ccccc1)C1CCN(c2ccccc2)N1C(C)=O` (stereo not given), the TGI in assay [1], in [3], in [6], in assay [7], in [8] and in assay [9] was > 10 µM throughout. Further, in assay [10], the TGI is > 10 µM.
Turning to `CC1=CCN(c2ccccn2)OC1c1ccccc1` (stereo not given), the TGI in [1], in assay [2], in assay [3], in assay [5], in assay [6] and in [7] was > 100 µM throughout. Also, the TGI in assay [8], in [9] and in assay [10] was > 100 µM throughout.
As to `COC1OC(C(=O)O)C2OC(C)(C)OC12` (stereo not given), the TGI in assay [1], in assay [2], in assay [3], in assay [5], in assay [6] and in assay [7] was > 100 µM throughout. For the same molecule, the TGI in assay [8], in assay [9] and in assay [10] was > 100 µM each time.
On to `O=c1c2cc(I)ccc2nc(-c2cccs2)n1O`, for which the TGI is 96.9 µM in assay [1]; > 100 µM in assay [2]; > 100 µM in assay [3]; > 100 µM in assay [5]; > 100 µM in assay [6]; 72 µM in assay [7]. The values for the TGI in assay [8], in assay [9] and in assay [10] were > 100 µM, 42.8 µM and > 100 µM, respectively.
`Cc1nc(Cc2n[nH]c(C)n2)n[nH]1`: the TGI in assay [1], in [2], in assay [3], in assay [5], in [7] and in assay [8] was > 100 µM throughout. Also, the TGI in [9] and in [10] was > 100 µM in each case.
With `N#Cc1c(N)nc(Sc2ccccc2N)c(C#N)c1-c1ccccc1`, the TGI in assay [1] was > 100 µM; in assay [2], 26.6 µM; in [3] it was 63.7 µM; in assay [5], 94.8 µM; in [6] it was > 100 µM; in assay [7], > 100 µM. Besides, the TGI in assay [8] was > 100 µM; in assay [10], 75 µM.
